From patent publication US20230055237A1, “COMPOUNDS AND METHODS FOR THE TREATMENT OF CYSTIC FIBROSIS” (Flatley Discovery Lab, LLC, priority 2019, published 2023)

Target: T1, CFTR (Homo sapiens, UniProt P13569, DEL508-508)
T1 construct: Primary CF airway epithelial cells were obtained from the UNC Cystic Fibrosis Tissue Procurement and Cell Culture Core; host or cells: primary CF airway epithelial cells, differentiated at the air-liquid interface
Assay: Equivalent current assay in primary CF airway epithelial cells (NAUC, combination with 1st site corrector FDL169 or VX-809)
Format: cell-based
Details: 37° C., 24 h
Procedure: Primary CF airway epithelial cells were obtained from the UNC Cystic Fibrosis Tissue Procurement and Cell Culture Core. The cells are grown at 37° C. in a Heracell 150i incubator using growth media (BEGM, Fischer). […] Two days before the Ussing assay the mucus on the apical surface of the cells was aspirated after incubating with 200 μL of differentiation media for at least thirty (30) minutes. One day before the Ussing assay test compounds were added to the basolateral surface of the cells at various test concentrations dissolved in DMSO. Duplicate wells were prepared giving a n=3 or n=4 protocol.
Cells were treated for 24 hours with various combinations and concentrations of the test articles, reference standard (3 μM VX809 or 3 μM FDL169, positive control). Compounds stock solutions were prepared in DMSO and diluted 1/1000 into ALI media to their final assay concentration. Cells were treated with combination solutions (2 mL of each dilution) and incubated at 37° C. for 24 h.
For the equivalent current assay, cells on four Transwell (24-well) plates were treated. Each Transwell plate was filled with 200 μl of HBS on the apical surface and 2 ml on the basolateral surface. Plates were placed horizontally in a heated mount at 37° C., and equilibrated for several minutes. Resting current was measured for 15 min and then blocked by the apical addition of 5 μM benzamil. After 20 min, 10 μM forskolin and 1 μM VX770 were added to both the apical and basolateral side to stimulate CFTR. An increase in chloride current is seen as an upward deflection of the trace.
The raw data, current vs. time for the Ussing chamber (sampling interval: 10 s) and voltage vs. time and resistance vs. time for the equivalent current assay (sampling interval: 5 minutes) were transferred to Excel (Microsoft Office Professional, version 14.0.7106.5003) for analysis. […] This average is equivalent to the sum of the average forskolin activated and the average VX770-potentiated currents. The average current measured in vehicle (0.1% DMSO) treated cells, Iv, was subtracted from the current for the test article, ITA, or from the corrector reference standard VX809 (3 uM ISTD). For replicate measurements, the average vehicle subtracted response for the test article, was normalized to the average vehicle subtracted inhibitor response of the reference corrector VX809 (3 μM).
A second endpoint, for the equivalent current assay, evaluated was NAUC, the normalized area under the curve (AUC) measuring the response after addition of forskolin and VX770 to the time point right before the addition of the CFTR inhibitor. The AUC is effectively the average response multiplied by the duration of the response.
NAUCTA=[AUCTA−AUCV,ave]/[AUCVx809r,ave−AUCV,ave] (Equation 2).
Experiments were run with a minimum of n=4 replicates per concentration. Since the distribution for the ratio of two normal distributions is a Cauchy distribution, the median value must be used for the average and the average deviation must be used for the error of all normalized data.
E=Emin+(Emax−Emin)/(1+10^((LogEC5OS)*nH)) (Equation 3)

[1] = test compound 1 μM in combination with 1st site corrector VX-809 (3 μM)
[2] = test compound 3 μM in combination with 1st site corrector VX-809 (3 μM)
[3] = test compound 10 μM in combination with 1st site corrector VX-809 (3 μM)
[4] = test compound 1 μM in combination with 1st site corrector FDL169 (3 μM)
[5] = test compound 3 μM in combination with 1st site corrector FDL169 (3 μM)
[6] = test compound 10 μM in combination with 1st site corrector FDL169 (3 μM)

T1 sequence (P13569 with tags, fused parts or gaps DEL508-508): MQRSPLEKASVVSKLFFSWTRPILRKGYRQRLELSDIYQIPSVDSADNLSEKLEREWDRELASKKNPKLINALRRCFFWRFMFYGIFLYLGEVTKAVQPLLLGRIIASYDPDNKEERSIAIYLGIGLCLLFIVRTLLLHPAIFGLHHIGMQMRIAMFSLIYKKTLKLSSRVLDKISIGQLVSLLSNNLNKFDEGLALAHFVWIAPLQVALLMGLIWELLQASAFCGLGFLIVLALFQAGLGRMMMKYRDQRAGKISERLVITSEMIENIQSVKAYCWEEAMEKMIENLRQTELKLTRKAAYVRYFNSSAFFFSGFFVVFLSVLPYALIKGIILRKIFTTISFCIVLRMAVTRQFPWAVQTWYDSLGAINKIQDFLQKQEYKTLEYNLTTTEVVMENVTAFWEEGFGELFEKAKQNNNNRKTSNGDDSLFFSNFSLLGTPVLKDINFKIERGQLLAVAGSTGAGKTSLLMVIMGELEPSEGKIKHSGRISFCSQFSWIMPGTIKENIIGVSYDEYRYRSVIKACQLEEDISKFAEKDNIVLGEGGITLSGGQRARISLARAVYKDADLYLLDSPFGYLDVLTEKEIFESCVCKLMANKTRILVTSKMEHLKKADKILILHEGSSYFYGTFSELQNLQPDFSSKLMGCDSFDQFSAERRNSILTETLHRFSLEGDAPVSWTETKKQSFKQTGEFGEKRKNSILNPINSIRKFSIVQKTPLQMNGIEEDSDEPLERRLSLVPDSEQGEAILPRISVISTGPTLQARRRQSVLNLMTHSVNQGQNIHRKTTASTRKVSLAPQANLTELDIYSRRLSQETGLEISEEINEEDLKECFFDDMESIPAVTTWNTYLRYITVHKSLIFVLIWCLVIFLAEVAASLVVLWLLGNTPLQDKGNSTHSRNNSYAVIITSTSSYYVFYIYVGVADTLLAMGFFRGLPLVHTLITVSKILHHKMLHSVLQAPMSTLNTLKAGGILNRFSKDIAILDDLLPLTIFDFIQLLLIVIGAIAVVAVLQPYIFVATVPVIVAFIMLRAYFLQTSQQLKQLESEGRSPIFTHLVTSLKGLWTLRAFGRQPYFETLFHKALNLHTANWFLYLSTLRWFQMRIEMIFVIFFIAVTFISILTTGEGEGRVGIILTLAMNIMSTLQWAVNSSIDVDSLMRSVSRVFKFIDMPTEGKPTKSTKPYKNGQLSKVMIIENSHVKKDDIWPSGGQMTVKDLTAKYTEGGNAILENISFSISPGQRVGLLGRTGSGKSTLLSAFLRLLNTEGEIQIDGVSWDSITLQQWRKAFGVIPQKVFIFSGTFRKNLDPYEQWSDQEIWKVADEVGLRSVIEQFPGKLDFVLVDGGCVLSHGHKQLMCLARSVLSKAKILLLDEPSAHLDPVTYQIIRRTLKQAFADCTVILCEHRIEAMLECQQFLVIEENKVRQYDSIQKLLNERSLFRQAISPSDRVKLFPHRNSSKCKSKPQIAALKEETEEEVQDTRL

Row | Compound | Nauc @ 1 μM [1] | Nauc @ 3 μM [2] | Nauc @ 10 μM [3] | Nauc @ 1 μM [4] | Nauc @ 3 μM [5] | Nauc @ 10 μM [6]
1 | CN(C(=O)C1C2N(CCC2(F)F)C2(C(=O)Nc3c(Cl)cc(Cl)cc32)C1C(=O)O)c1cc(Cl)cc(Cl)c1 (single isomer, unassigned) [Example 268b, 5,7-dichloro-1′-((3,5-dichlorophenyl)(methyl)carbamoyl)-7′,7′-difluoro-2-oxo-1′,2′,5′,6′,7′,7a′-hexahydrospiro[indoline-3,3′-pyrrolizine]-2′-carboxylic acid] | +++ (NAUC “+++” refers to an observed NAUC>170% of positive control) | +++ (NAUC “+++” refers to an observed NAUC>170% of positive control) | – | – | – | –
2 | Cc1ccccc1C(F)(F)C1NC2(C(=O)Nc3c(Cl)cc(Cl)cc32)C(C(=O)O)C1C(=O)Nc1cc(Cl)cc(Cl)c1 (stereo not shown) [Example 61] | – | +++ (NAUC “+++” refers to an observed NAUC>170% of positive control) | +++ (NAUC “+++” refers to an observed NAUC>170% of positive control) | – | – | –
3 | CN(C(=O)[C@H]1[C@H]2C[C@](C)(OCc3ccccc3)CN2[C@]2(C(=O)Nc3c(Cl)cc(Cl)cc32)[C@H]1C(=O)O)c1cc(Cl)cc(Cl)c1 [Example 92] | ++ (NAUC “++” refers to an observed NAUC 170-140% of positive control) | +++ (NAUC “+++” refers to an observed NAUC>170% of positive control) | +++ (NAUC “+++” refers to an observed NAUC>170% of positive control) | + (NAUC “+” refers to an observed NAUC <140% of positive control) | ++ (NAUC “++” refers to an observed NAUC 170-140% of positive control) | +++ (NAUC “+++” refers to an observed NAUC>170% of positive control)
4 | CN(CC1(c2cccc(C(C)(C)C)c2)CC1)C(=O)[C@H]1[C@H]2CC(F)(F)CN2[C@]2(C(=O)Nc3c(Cl)cc(Cl)cc32)[C@H]1C(=O)O [Example 112] | +++ (NAUC “+++” refers to an observed NAUC>170% of positive control) | +++ (NAUC “+++” refers to an observed NAUC>170% of positive control) | +++ (NAUC “+++” refers to an observed NAUC>170% of positive control) | – | – | –
5 | C[C@]1(O)CC2C(C(=O)Nc3cc(C(F)(F)F)cc(C(F)(F)F)n3)C(C(=O)O)C3(C(=O)Nc4c(Cl)cc(Cl)cc43)N2C1 (stereo partly shown) [Example 5] | – | +++ (NAUC “+++” refers to an observed NAUC>170% of positive control) | +++ (NAUC “+++” refers to an observed NAUC>170% of positive control) | – | – | –
6 | O=C(O)[C@H]1[C@@H](C(=O)N(CC2CC2)c2cc(Cl)cc(Cl)c2)[C@H]2CC(F)(F)CN2[C@]12C(=O)Nc1c(Cl)cc(Cl)cc12 [Example 173] | – | – | – | +++ (NAUC “+++” refers to an observed NAUC>170% of positive control) | +++ (NAUC “+++” refers to an observed NAUC>170% of positive control) | + (NAUC “+” refers to an observed NAUC <140% of positive control)
7 | CN(C(=O)[C@H]1[C@H]2CC(F)(F)CN2C2(C(=O)Nc3c(Cl)cc(Cl)cc32)[C@H]1C(=O)NS(=O)(=O)c1ccccc1)c1cc(Cl)cc(Cl)c1 (mixture of isomers) [Example 230, rel-(1′R,2′S,3R,7a′R)-5,7-dichloro-N1′-(3,5-dichlorophenyl)-6′,6′-difluoro-N1′-methyl-2-oxo-N2′-(phenylsulfonyl)-1′,2′,5′,6′,7′,7a′-hexahydrospiro[indoline-3,3′-pyrrolizine]-1′,2′-dicarboxamide] | – | – | + (NAUC “+” refers to an observed NAUC <140% of positive control) | – | – | –
8 | CN(C)C(=O)CN1C(=O)[C@]2(c3cc(Cl)cc(Cl)c31)[C@@H](C(=O)O)[C@@H](C(=O)N(CC1CC1)c1cc(Cl)cc(Cl)c1)[C@H]1CC(F)(F)CN12 [Example 205] | – | – | – | + (NAUC “+” refers to an observed NAUC <140% of positive control) | ++ (NAUC “++” refers to an observed NAUC 170-140% of positive control) | ++ (NAUC “++” refers to an observed NAUC 170-140% of positive control)
9 | O=C(Nc1cncc(C(F)(F)F)n1)C1C2C[C@@](O)(C(F)(F)F)CN2C2(C(=O)Nc3c(Cl)cc(Cl)cc32)C1C(=O)O (single isomer, unassigned) [Example 75.a] | – | – | + (NAUC “+” refers to an observed NAUC <140% of positive control) | – | – | –
10 | O=C(Nc1cc(C(F)(F)F)cc(C(F)(F)F)n1)C1C2CC3(CC3)CN2C2(C(=O)Nc3c(Cl)cc(Cl)cc32)C1C(=O)O (stereo not shown) [Example 1] | – | +++ (NAUC “+++” refers to an observed NAUC>170% of positive control) | +++ (NAUC “+++” refers to an observed NAUC>170% of positive control) | – | – | –
11 | O=C(NCCc1cccc(Cl)c1)C1C2CC(F)(F)CN2C2(C(=O)Nc3c(Cl)cc(Cl)cc32)C1C(=O)O (stereo not shown) [Example 51] | – | +++ (NAUC “+++” refers to an observed NAUC>170% of positive control) | +++ (NAUC “+++” refers to an observed NAUC>170% of positive control) | – | – | –
12 | CC(=O)OCOC(=O)[C@H]1[C@@H](C(=O)N(C)c2cc(Cl)cc(Cl)c2)[C@H]2CC(F)(F)CN2C12C(=O)Nc1c(Cl)cc(Cl)cc12 (mixture of isomers) [Example 257, acetoxymethyl (1′R,2′S,3R,7a′R)-5,7-dichloro-1-((3,5-dichlorophenyl)(methyl)carbamoyl)-6′,6′-difluoro-2-oxo-1′,2′,5′,6′,7′,7a′-hexahydrospiro[indoline-3,3′-pyrrolizine]-2′-carboxylate] | – | – | +++ (NAUC “+++” refers to an observed NAUC>170% of positive control) | – | – | –
13 | CN(C(=O)[C@H]1[C@@H](C(=O)NCC(F)(F)F)[C@]2(C(=O)Nc3c(Cl)cc(Cl)cc32)N2CC(F)(F)C[C@@H]12)c1cc(Cl)cc(Cl)c1 (single isomer, unassigned) [Example 232a] | + (NAUC “+” refers to an observed NAUC <140% of positive control) | + (NAUC “+” refers to an observed NAUC <140% of positive control) | + (NAUC “+” refers to an observed NAUC <140% of positive control) | – | – | –
14 | CN(C(=O)[C@H]1[C@H]2CC(F)(F)CN2[C@]2(C(=O)N(C)c3c(Cl)cc(Cl)cc32)[C@H]1C(=O)O)c1cc(Cl)cc(Cl)c1 [Example 200, (1′R,2′S,3R,7a′R)-5,7-dichloro-1-((3,5-dichlorophenyl)(methyl)carbamoyl)-6′,6′-difluoro-1-methyl-2-oxo-1′,2′,5′,6′,7′,7a′-hexahydrospiro[indoline-3,3′-pyrrolizine]-2′-carboxylic acid] | +++ (NAUC “+++” refers to an observed NAUC>170% of positive control) | +++ (NAUC “+++” refers to an observed NAUC>170% of positive control) | +++ (NAUC “+++” refers to an observed NAUC>170% of positive control) | ++ (NAUC “++” refers to an observed NAUC 170-140% of positive control) | ++ (NAUC “++” refers to an observed NAUC 170-140% of positive control) | ++ (NAUC “++” refers to an observed NAUC 170-140% of positive control)
15 | O=C(O)[C@H]1[C@@H](C(=O)N(Cc2ccccc2)c2cc(Cl)cc(Cl)c2)[C@H]2CC(F)(F)CN2[C@]12C(=O)Nc1c(Cl)cc(Cl)cc12 [Example 149] | – | – | – | ++ (NAUC “++” refers to an observed NAUC 170-140% of positive control) | +++ (NAUC “+++” refers to an observed NAUC>170% of positive control) | + (NAUC “+” refers to an observed NAUC <140% of positive control)
